The target in test [1] is T1, SETD2 (Homo sapiens, UniProt Q9BYW2). The test is described as follows: biochemical. Details: Eurofins radiometric methyltransferase inhibition assay with [3H]SAM and nucleosome, core histone or histone H3 substrate. The text has this: (§1) Inhibitory activity assays for prospective validation
A further test deals with KMT2A (Homo sapiens, UniProt Q03164). The test is described as follows: biochemical. Details: Eurofins radiometric methyltransferase inhibition assay with [3H]SAM and nucleosome, core histone or histone H3 substrate.
Text: as §1

Test [2] has as its target T2, NSD1 (Homo sapiens, UniProt Q96L73). Description: biochemical. On the set-up: Eurofins radiometric methyltransferase inhibition assay with [3H]SAM and nucleosome, core histone or histone H3 substrate.
Text: as §1

Test [3] concerns the target T3, KMT5C (Homo sapiens, UniProt Q86Y97). The test is described as follows: biochemical. On the set-up: Eurofins radiometric methyltransferase inhibition assay with [3H]SAM and nucleosome, core histone or histone H3 substrate.
Text: as §1

Another test concerns the target T4, NSD2 (Homo sapiens, UniProt O96028).
T4 sequence (O96028 1-1365): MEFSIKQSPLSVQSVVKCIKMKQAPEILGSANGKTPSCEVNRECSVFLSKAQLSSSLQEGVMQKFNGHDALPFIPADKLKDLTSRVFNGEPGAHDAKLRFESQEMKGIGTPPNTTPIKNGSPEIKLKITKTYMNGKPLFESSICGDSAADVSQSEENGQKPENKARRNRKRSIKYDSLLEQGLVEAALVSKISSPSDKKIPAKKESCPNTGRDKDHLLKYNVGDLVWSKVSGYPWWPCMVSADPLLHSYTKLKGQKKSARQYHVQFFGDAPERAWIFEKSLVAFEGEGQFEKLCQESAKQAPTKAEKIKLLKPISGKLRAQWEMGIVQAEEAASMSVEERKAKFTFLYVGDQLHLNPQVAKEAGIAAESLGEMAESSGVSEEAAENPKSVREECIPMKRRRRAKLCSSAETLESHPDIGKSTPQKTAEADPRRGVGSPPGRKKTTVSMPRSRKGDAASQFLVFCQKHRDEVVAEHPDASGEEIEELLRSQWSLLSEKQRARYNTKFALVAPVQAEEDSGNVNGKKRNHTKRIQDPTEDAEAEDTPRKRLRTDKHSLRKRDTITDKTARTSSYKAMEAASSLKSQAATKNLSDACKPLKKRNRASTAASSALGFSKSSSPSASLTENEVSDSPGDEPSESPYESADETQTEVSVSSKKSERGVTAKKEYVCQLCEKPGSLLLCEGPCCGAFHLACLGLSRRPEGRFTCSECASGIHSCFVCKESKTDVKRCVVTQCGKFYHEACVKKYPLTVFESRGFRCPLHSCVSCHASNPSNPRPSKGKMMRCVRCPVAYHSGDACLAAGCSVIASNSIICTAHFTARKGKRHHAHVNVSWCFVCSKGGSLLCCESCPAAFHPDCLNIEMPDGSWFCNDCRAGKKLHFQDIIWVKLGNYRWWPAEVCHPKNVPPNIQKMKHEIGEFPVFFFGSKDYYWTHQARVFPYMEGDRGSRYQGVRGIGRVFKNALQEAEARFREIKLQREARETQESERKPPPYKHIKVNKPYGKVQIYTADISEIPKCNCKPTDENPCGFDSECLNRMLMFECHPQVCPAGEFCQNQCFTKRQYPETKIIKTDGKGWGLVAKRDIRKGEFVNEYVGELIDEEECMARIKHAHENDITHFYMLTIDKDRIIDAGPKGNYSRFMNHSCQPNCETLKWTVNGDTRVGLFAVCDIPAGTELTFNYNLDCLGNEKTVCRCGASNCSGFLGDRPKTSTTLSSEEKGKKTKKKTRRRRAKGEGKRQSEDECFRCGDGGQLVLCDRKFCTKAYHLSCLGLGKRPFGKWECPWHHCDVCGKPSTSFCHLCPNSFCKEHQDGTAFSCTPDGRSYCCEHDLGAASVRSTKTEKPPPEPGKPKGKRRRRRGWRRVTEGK
The test is described as follows: biochemical. Details: Eurofins radiometric methyltransferase inhibition assay with [3H]SAM and nucleosome, core histone or histone H3 substrate.
Text: as §1

Test [4] addresses T2, NSD1. The test is described as follows: radioactive [3H]SAM methyltransferase assay with nucleosome substrate (Eurofins), […]. The class given is biochemical.
In test [5] the target is T3, KMT5C. The description is as above. It is filed as biochemical.
Test [6] concerns the target T1, SETD2. The test is described as above. It is filed as biochemical.

T2 sequence (Q96L73 whole entry): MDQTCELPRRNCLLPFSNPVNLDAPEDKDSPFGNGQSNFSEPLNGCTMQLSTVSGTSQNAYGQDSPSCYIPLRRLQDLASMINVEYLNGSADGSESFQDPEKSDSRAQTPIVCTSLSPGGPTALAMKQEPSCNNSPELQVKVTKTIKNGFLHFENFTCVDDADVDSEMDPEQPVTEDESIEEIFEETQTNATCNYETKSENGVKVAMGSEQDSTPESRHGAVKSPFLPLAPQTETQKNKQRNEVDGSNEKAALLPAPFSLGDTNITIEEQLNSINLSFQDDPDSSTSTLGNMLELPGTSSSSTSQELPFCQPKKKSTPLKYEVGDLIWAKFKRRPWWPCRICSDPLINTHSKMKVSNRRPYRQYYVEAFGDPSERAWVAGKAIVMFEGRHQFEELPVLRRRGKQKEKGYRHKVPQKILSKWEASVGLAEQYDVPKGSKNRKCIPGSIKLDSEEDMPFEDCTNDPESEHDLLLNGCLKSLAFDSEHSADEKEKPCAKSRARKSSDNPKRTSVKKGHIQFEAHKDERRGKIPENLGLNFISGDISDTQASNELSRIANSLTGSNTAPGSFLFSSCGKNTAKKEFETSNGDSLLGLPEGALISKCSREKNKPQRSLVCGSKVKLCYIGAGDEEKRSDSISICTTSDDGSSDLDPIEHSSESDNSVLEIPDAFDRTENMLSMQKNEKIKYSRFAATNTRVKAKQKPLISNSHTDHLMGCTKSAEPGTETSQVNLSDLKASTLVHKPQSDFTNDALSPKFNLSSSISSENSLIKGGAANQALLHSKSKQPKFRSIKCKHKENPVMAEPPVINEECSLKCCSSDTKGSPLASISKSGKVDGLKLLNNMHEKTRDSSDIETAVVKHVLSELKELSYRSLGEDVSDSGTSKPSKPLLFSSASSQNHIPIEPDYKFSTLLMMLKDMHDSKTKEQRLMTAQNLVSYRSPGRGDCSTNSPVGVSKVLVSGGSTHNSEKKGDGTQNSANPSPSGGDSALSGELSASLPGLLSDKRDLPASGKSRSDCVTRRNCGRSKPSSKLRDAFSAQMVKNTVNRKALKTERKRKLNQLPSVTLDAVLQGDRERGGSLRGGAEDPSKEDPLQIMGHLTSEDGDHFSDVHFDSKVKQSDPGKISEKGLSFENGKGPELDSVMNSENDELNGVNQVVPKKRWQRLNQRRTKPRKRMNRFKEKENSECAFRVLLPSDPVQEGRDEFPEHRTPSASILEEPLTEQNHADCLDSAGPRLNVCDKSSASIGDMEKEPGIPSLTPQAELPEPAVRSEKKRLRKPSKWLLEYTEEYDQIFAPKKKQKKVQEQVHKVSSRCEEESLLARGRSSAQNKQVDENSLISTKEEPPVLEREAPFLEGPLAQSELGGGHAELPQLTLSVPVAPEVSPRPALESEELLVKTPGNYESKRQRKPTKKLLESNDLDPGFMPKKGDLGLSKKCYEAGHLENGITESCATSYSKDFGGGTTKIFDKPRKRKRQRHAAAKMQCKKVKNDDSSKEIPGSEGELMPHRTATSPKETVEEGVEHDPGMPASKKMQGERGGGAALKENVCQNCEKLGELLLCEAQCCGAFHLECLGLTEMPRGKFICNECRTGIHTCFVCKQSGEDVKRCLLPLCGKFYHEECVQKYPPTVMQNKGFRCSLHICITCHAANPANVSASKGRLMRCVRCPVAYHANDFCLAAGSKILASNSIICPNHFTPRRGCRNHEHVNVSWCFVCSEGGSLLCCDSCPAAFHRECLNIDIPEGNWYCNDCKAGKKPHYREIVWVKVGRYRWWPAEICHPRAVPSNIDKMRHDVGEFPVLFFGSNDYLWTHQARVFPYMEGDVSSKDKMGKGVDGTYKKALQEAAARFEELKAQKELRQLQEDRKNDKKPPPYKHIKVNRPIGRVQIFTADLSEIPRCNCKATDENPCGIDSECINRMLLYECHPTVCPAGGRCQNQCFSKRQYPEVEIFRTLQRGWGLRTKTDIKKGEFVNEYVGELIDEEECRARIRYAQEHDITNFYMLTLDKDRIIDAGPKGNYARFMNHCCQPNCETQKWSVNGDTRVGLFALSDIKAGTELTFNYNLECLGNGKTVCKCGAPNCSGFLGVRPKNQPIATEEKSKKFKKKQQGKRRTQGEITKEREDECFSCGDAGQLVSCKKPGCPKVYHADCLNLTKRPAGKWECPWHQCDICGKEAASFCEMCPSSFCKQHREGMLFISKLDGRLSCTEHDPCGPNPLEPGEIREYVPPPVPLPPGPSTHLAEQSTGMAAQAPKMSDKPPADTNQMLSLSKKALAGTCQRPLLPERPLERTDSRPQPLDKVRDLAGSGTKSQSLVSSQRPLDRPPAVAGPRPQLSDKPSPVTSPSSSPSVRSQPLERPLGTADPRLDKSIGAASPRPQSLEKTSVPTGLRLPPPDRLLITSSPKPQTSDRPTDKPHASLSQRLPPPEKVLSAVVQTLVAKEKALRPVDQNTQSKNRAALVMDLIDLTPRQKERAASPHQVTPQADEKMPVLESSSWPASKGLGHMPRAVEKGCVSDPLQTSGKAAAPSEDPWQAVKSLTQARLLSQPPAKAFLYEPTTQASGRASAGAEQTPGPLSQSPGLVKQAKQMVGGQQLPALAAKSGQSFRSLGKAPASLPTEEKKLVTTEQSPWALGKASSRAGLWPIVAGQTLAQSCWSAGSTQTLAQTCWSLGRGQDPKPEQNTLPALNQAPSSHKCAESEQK
T3 sequence (Q86Y97 whole entry): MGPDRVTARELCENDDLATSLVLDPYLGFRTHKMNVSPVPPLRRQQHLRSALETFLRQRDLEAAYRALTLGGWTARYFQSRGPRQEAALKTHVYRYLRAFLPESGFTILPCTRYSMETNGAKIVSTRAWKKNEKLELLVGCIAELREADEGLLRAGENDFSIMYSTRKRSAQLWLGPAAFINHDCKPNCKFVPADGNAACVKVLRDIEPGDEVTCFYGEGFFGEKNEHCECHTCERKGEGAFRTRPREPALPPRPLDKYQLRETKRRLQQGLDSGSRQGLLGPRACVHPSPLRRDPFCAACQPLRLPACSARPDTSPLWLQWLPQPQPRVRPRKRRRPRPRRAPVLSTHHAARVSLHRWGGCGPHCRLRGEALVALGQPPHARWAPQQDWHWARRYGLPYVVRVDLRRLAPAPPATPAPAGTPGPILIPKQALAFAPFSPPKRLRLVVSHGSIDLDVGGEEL

Turning to `COc1cc2c(NC3CCN(C)CC3)cc(-c3ccc(C)o3)nc2cc1OCCCN1CCCC1` [CM-272], the inhibition at 100 µM was determined as 45.9% against SETD2 [1]; 7.4% against KMT2A; 97.8% against NSD1 [2]; 91.8% at KMT5C [3]; 11.7% against NSD2. Also, the inhibition at 10 µM is -1% on KMT2A; 63.5% against NSD1 [2]; 92% against KMT5C [3]; -0.5% on NSD2; greater than 50% at NSD1 [4]. Besides, the “radioactive [3H]SAM methyltransferase assay with nucleosome substrate (Eurofins)” value (“radioactive” below) at KMT5C [5] is reported as “low micromolar range”.

As to `COc1cc2c(NC3CC4(CCN(C)CC4)C3)cc(-c3ccc(C)o3)nc2cc1OCCCN1CCCC1` [CM-679], the inhibition at 100 µM at SETD2 [6] came to 84%; at KMT2A it was 48.8%; against NSD1 [2], 98%; on KMT5C [3] it was 92.9%; at NSD2, 0.3%. The inhibition at 10 µM is -52.4% against SETD2 [1]; 8.6% against KMT2A; 81.7% on NSD1 [2]; 85.7% on KMT5C [3]; 11.9% against NSD2; greater than 50% on NSD1 [4]. For the same molecule, the “radioactive” value on KMT5C [5] is listed as “low micromolar range”.

In the case of `COc1cc2c(NC3CCN(C)CC3)cc(-c3ccc(C)o3)nc2cc1OC1CC2(C1)CN(C)C2` [CM-986], the inhibition at 10 µM against SETD2 [1] was -69.8%; on KMT2A, 2.9%; against NSD1 [2], 55.9%; on KMT5C [3], 79.1%; against NSD2, -7.2%; at NSD1 [4] it was greater than 50%. The inhibition at 100 µM against SETD2 [1] was 42.1%; against KMT2A, 30.5%; on NSD1 [2], 98.8%; at KMT5C [3] it was 87.7%; against NSD2, 2.7%. Moreover, the “radioactive” value at KMT5C [5] is recorded as “low micromolar range”.

For the origin of these results see PMC6054832, “Novel pharmacological maps of protein lysine methyltransferases: key for target deorphanization” (Journal of Cheminformatics, 2018).
